The target in this experiment is Eis_wt (Mycobacterium tuberculosis, UniProt P9WFK7). It counts as biochemical. The settings on record: KAN as substrate.

For orientation: kcat means the number of substrate molecules converted per active site and unit of time at saturation. Usually Km stands for the substrate concentration at which the rate is half of its maximum.

Sequence of Eis_wt (P9WFK7 whole entry): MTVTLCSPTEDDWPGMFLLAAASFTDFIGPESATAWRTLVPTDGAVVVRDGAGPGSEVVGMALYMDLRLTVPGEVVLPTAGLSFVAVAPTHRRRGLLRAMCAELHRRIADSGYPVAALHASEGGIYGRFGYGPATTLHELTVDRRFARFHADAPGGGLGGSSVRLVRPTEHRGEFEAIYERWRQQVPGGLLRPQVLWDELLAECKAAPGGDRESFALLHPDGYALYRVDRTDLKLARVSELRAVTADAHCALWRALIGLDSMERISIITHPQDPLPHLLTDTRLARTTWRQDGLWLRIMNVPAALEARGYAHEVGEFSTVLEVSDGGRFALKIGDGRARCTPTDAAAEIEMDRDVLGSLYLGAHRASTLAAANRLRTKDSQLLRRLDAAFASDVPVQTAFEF

For `NC[C@H]1O[C@H](O[C@H]2[C@H](O)[C@@H](O[C@H]3O[C@H](CO)[C@@H](O)[C@H](N)[C@H]3O)[C@H](N)C[C@@H]2N)[C@H](O)[C@@H](O)[C@@H]1O` [KAN, kanamycin], the kcat was found to be 0.238 ± 0.0317 s⁻¹. The Km (average for three sets of assays) stood at 551 ± 134 µM.

For the origin of these results see paper PMC7337102 (ACS infectious diseases, 2019).
